These results are taken from publication PMC9142922, “Galactosylated Prodrugs: A Strategy to Improve the Profile of Nonsteroidal Anti-Inflammatory Drugs” (Pharmaceuticals, 2022).

The series can be described thus: Ex vivo permeation across excised rat small intestine (non-everted intestinal sac). The class given is in vitro ADME, male Wistar rats. As to conditions: compound filled into the sac, 5 mg/Kg in PBS + methocel 3%, 37 °C, 2 h; for Fraction Absorbed (Fa) ± SE, Duodenum: rat duodenum; for Fraction Absorbed (Fa) ± SE, Ileum: rat ileum; for Fraction Absorbed (Fa) ± SE, Jejunum: rat jejunum. The method, then:
The permeability of the galactosylated prodrugs and the parent drugs through the rat small intestine was assessed ex vivo using the non-everted intestinal sac method. Despite some shortcomings (e.g., the interruption of normal blood flow, lack of a nervous system) this test is widely used to investigate the passive absorption of molecules and can provide further data when equipped with a mucus layer, which includes proteins of drug transport and metabolism.
A suspension of the tested compounds (5 mg/Kg in PBS + methocel 3%) was syringed into intestinal sacs that consisted of different segments of rat small intestine (duodenum, jejunum, ileum). The compound-enriched tissues were incubated at 37 °C for 2 h.
In order to verify the presence of the galactosylated compounds in the intestinal tissues, the intestinal sacs were opened at the end of the incubation period, washed with fresh buffer and homogenized in ethanol and the supernatant was dried. The concentrations of the galactosylated prodrugs and the prodrug-derived parent drugs were quantified using RP-HPLC (Figure 3a–d).
An evaluation of ex vivo absorption was carried out using permeation measurements in excised rat small intestines, as previously published, with some modifications. Briefly, male Wistar rats (200–250 g) were anesthetized with isoflurane, decapitated and exsanguinated. Freshly excised rat duodenum, jejunum and ileum tissue was washed with Krebs–Ringer buffer (KRB) and cut into pieces of 4–5 cm. Then, 0.2 mL of a suspension containing the compounds (5 mg/Kg, PBS + Methocel 3%) were syringed into intestinal sacs and the compound-enriched tissues were incubated in oxygenated KRB (10 mL) at 37 °C with smooth shaking. […] Tests were carried out in triplicate for each compound on three intestinal segments from three different rats. The concentration in the incubation buffer was quantified via RP-HPLC, as reported above.
At the end of the incubation period, the intestinal sacs were opened, washed with fresh buffer, homogenized in ethanol (1 mL, UltraTurrax) and centrifuged at 13,000× g for 5 min and the supernatant was dried with nitrogen. After resolubilization in 0.5 mL of methanol, the concentrations of the galactosylated prodrugs and prodrug-derived parent drugs were quantified using RP-HPLC.

With `CC(C(=O)OC[C@H]1OC(O)[C@H](O)[C@@H](O)[C@H]1O)c1ccc(-c2ccccc2)c(F)c1` (stereo partly drawn) [FluGAL], the “Fraction Absorbed (Fa) ± SE, Duodenum” value is on record as 0.060 ± 0.014; the “Fraction Absorbed (Fa) ± SE, Ileum” value is listed as 0.033 ± 0.008; the “Fraction Absorbed (Fa) ± SE, Jejunum” value came to 0.031 ± 0.015.

Take `CC(C)Cc1ccc(C(C)C(=O)OC[C@H]2OC(O)[C@H](O)[C@@H](O)[C@H]2O)cc1` (stereo partly drawn) [IbuGAL]: the “Fraction Absorbed (Fa) ± SE, Duodenum” value is listed as 0.013 ± 0.006; the “Fraction Absorbed (Fa) ± SE, Ileum” value is listed as 0.031 ± 0.016; the “Fraction Absorbed (Fa) ± SE, Jejunum” value is given as 0.026 ± 0.014.
